Results from paper PMC5902495, “Synthesis of Symmetrical Tetrameric Conjugates of the Radiolanthanide Chelator DOTPI for Application in Endoradiotherapy by Means of Click Chemistry” (Frontiers in Chemistry, 2018).

Legend:
[1] = Stability and protonation constants of Cu^II complexes (spectrophotometry, pH-potentiometry); assay type: physicochemical; details: 25°C, 0.15 M NaCl
Method: Stability constant of Cu(DOTPI) complex was determined by spectrophotometry, studying the Cu^II-DOTPI systems at the absorption band of Cu^II-complex at [H^+] = 0.01– 0.2 M over the wavelength range of 400–800 nm. Concentrations of Cu^II and DOTPI were 1 mM. The H^+ concentration in the samples was adjusted by addition of calculated amounts of 2.0 M HCl, while ionic strength was not constant in these samples. Samples were kept at 25°C for a week. Absorbance values were determined at 9 wavelengths (550, 575, 600, 625, 650, 675, 700, 725, and 750 nm). For calculation of stability and protonation constants of Cu(DOTPI), molar absorptivities of CuCl2, and Cu(HxL) species (wherein x = 0, 1, 2 …5) were determined by recording the spectra of 1.0 × 10^−3, 2.0 × 10^−3 and 3.0 × 10^−3 M solutions of CuCl2 and Cu(DOTPI) in the pH range of 1.7–11.7. The protonation constants of the complexes Cu(DOTPI) and the stability and protonation constants of the dinuclear Cu2(DOTPI) complexes were determined by pH-potentiometric titrations, made at 1:1 and 2:1 metal to ligand concentration ratios.
The stability constant of the Cu(DOTPI(Chx)4) complex has been determined by spectrophotometry with the use of competition reactions between DOTPI(Chx)4 and EDTA for the Cu^2+ at pH = 5.0. The concentration of Cu(EDTA) was 0.2 mM, while that of the DOTPI(Chx)4 was varied between 0.1 and 1.0 mM (5 samples). The samples were kept at 25°C for 2 weeks. The absorbance values and the molar absorptivities of CuCl2, Cu(DOTPI(Chx)4), and Cu(EDTA) have been determined at 11 wavelength (300, 304, 308, 312, 316, 320, 324, 328, 332, 336, and 340 nm) values between 300 and 340 nm. The molar absorptivities of CuCl2, Cu(DOTPI(Chx)4), and Cu(EDTA) were deteremined in 0.05, 0.1, 0.2, 0.3, and 0.4 mM solutions. The absorbance and pH values were determined in the samples after the equilibrium was reached (the time needed to reach the equilibria was determined by spectrophotometry). The spectrophotometric measurements were made with the use of 1.0 cm cells with a Cary 1E spectrophotometer at 25°C. The protonation constants of Cu(DOTPI(Chx)4) complex were determined by pH-potentiometric titrations at 1:1 metal to ligand molar ratio.
For pH measurements and titrations, a Metrohm 785 DMP Titrino titration workstation and a Metrohm-6.0233.100 combined electrode were used. Equilibrium measurements were carried out at a constant ionic strength (0.15 M NaCl) in 6 mL samples at 25°C. The solutions were stirred, and constantly purged with N2. The titrations were performed in a pH range of 1.7–11.7. KH-phthalate (pH = 4.005) and borax (pH = 9.177) buffers were used to calibrate the pH meter. For calculation of [H^+] from measured pH values, the method proposed by Irving et al. was used (Irving et al., [1967]). A 0.01 M HCl solution was titrated with the standardized NaOH solution in the presence of 0.1 M NaCl. Differences between the measured (pHread) and calculated pH (–log[H^+]) values were used to obtain the equilibrium H^+ concentration from the pH values, measured in the titration experiments. For the equilibrium calculations, the stoichiometric water ionic product (pKw) is also needed to calculate [H^+] values in basic conditions. […] For the calculation of the equilibrium constants the program PSEQUAD (Zekany and Nagypal, [1985]) was used.
2. Protonation and complexation equilibria of DOTPI and
The protonation processes of the DOTPI and DOTPI(Chx)4, ligands have been studied by pH-potentiometry. The protonation constants (logKiH) of ligands are defined according to Eq. (1).
The stability and protonation constants of DOTPI and DOTPI(Chx)4 complexes with several metal ions were determined by pH-potentiometric and UV/Vis spectrophotometric, methods.
The stability and protonation constants of the metal complexes formed with the DOTPI and […]

[2] = 25°C, I = 0.1 M Me4NCl; ref Lázár et al., [1991]; cited from earlier work

For `O=C(O)CCP(=O)(O)CN1CCN(CP(=O)(O)CCC(=O)O)CCN(CP(=O)(O)CCC(=O)O)CCN(CP(=O)(O)CCC(=O)O)CC1` [DOTPI, 1,4,7,10-tetraazacyclododecane-1,4,7,10-tetrakis[methylene(2-carboxyethylphosphinic acid)]], the “protonation constant Cu2LH” value [1] was 5.04 (3), the “protonation constant Cu2LH2” value [1] was 4.71 (5) and the “protonation constant CuH2L” value [1] was 5.07 (1). For the same compound, the “protonation constant CuH3L” value [1] was 4.49 (2), the “protonation constant CuH4L” value [1] was 4.20 (2) and the “protonation constant CuH5L” value [1] was 2.35 (3). For the same compound, the “protonation constant CuHL” value [1] was 5.68 (2), the “stability constant of dinuclear complex Cu2L” value [1] was 4.49 (6) and the “logKML, CaL” value [2] was 12.48.
